In US20250100968A1, “BICYCLIC-HETEROCYCLE DERIVATIVES AND RELATED USES” (CENTESSA PHARMACEUTICALS (UK) LIMITED, priority 2022, published 2025):
Where two headings read alike, the source gives them in different places.

How the values were obtained:
OX2R [1] = target: T1, OX2R (Mus musculus, UniProt P58308); settings: cited from earlier work
T1 construct: host or cells: mice (WT, orexin-deficient, orexin-neuron ablated)
T1 sequence (P58308 1-460): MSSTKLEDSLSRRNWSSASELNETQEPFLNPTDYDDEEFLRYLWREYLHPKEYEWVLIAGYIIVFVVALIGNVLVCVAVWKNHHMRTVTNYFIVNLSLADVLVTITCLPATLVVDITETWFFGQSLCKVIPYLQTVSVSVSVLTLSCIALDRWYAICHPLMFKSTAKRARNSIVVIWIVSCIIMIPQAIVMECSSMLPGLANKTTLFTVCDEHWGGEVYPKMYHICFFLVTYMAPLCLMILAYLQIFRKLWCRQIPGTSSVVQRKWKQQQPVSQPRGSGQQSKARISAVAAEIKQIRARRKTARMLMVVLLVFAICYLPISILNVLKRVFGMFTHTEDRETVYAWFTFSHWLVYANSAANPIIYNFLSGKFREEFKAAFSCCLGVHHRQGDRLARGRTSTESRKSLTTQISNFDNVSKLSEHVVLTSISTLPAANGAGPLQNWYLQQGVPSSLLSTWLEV

OX2R [2] = target: T2, OX2R (Homo sapiens, UniProt O43614); settings: individuals with NT1; initial clinical studies; cited from earlier work
T2 construct: host or cells: individuals with NT1
T2 sequence (O43614 1-444): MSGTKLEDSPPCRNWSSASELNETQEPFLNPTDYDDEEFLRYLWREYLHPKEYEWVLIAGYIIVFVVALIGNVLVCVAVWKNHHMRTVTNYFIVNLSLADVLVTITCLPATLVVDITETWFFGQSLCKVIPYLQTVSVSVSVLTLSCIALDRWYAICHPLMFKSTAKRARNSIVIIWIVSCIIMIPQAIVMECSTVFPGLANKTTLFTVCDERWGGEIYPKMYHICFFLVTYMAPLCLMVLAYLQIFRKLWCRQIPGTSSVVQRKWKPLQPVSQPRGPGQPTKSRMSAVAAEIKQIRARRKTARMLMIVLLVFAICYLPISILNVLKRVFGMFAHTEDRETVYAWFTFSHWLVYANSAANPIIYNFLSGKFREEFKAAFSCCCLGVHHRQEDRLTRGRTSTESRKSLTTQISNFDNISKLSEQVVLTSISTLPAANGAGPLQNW

[3] = target: T3, human orexin type 2 receptor (hOX2R) (Homo sapiens, UniProt O43614); test: cell-based;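 note: agonist activity in CHO cells stably expressing hOX2R, intracellular Ca2+ via Calcium 5 dye fluorescence area over 2 min, buffer-only as 0% and 10 nM orexin A as 100%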
T3 sequence (O43614 1-444): T2 sequence (O43614 1-444)

EC50 [3] [nM] | SMILES | also measured
– | COc1ccc(-c2cccc(C(=O)N(C)C)c2)cc1S(=O)(=O)Nc1cccc(NCCNC(=O)c2ccccc2N(C)C)c1 [YNT-185] | sleep-onset REM periods and cataplexy-like events (OX2R [1]; intraperitoneally or ICV, NT1 mouse model): decrease sleep-onset REM periods and cataplexy-like events; wakefulness (OX2R [1]; intraperitoneally or ICV, wild type (WT) and orexin ligand-deficient mice): modestly increases wakefulness
– | COC(=O)N1CCC[C@H](NS(C)(=O)=O)[C@@H]1CO[C@H]1CC[C@@H](c2ccccc2)CC1 [TAK-925] | wakefulness (OX2R [1]; subcutaneous administration, WT mice): modestly increased wakefulness; cataplexy (OX2R [2]): trends for decreasing cataplexy; wakefulness (OX2R [2]): substantial levels of increased wakefulness
1 to 10 | N#C[C@]1(C(=O)N2CC3(CC3)[C@H](NS(=O)(=O)CF)[C@@H]2Cc2cc(F)cc(-c3ccccc3)c2F)C[C@H](F)C1 [compound 89, N-((6S,7S)-5-((1r,3S)-1-cyano-3-fluorocyclobutane-1-carbonyl)-6-((2,5-difluoro-[1,1′-biphenyl]-3-yl)methyl)-5-azaspiro[2.4]heptan-7-yl)-1-fluoromethanesulfonamide] | –
1 to 10 | O=C([C@@H](O)C1CC1)N1CC2(CC2)[C@H](NS(=O)(=O)C(F)F)[C@@H]1Cc1cccc(-c2cc(F)cc(F)c2)c1F [compound 32, N-((6S,7S)-5-((S)-2-cyclopropyl-2-hydroxyacetyl)-6-((2,3′,5′-trifluoro-[1,1′-biphenyl]-3-yl)methyl)-5-azaspiro[2.4]heptan-7-yl)-1,1-difluoromethanesulfonamide] | –
1 to 10 | C[C@@H](NC(=O)N1CC2(CC2)[C@H](NS(=O)(=O)CF)[C@@H]1Cc1cc(F)cc(-c2ccccc2)c1F)C(F)F [compound 88, (6S,7S)-6-((2,5-difluoro-[1,1′-biphenyl]-3-yl)methyl)-N-((R)-1,1-difluoropropan-2-yl)-7-((fluoromethyl)sulfonamido)-5-azaspiro[2.4]heptane-5-carboxamide] | –
1 to 10 | N#C[C@]1(C(=O)N2CC3(CC3)[C@H](NS(=O)(=O)C(F)F)[C@@H]2Cc2cccc(-c3cccc(F)c3)c2F)CCO1 [compound 53, N-((6S,7S)-5-((S)-2-cyanooxetane-2-carbonyl)-6-((2,3′-difluoro-[1,1′-biphenyl]-3-yl)methyl)-5-azaspiro[2.4]heptan-7-yl)-1,1-difluoromethanesulfonamide] | –
1 to 10 | N#C[C@]1(C(=O)N2CC3(CC3)[C@H](NS(=O)(=O)CF)[C@@H]2Cc2cc(F)cc(-c3ccccc3)c2F)CCO1 [compound 85, N-((6S,7S)-5-((S)-2-cyanooxetane-2-carbonyl)-6-((2,5-difluoro-[1,1′-biphenyl]-3-yl)methyl)-5-azaspiro[2.4]heptan-7-yl)-1-fluoromethanesulfonamide] | –
1 to 10 | C[C@@H](F)C(=O)N1CC2(CC2)[C@H](NS(=O)(=O)C(F)F)[C@@H]1Cc1cccc(-c2cc(F)cc(F)c2)c1F [compound 31, 1,1-difluoro-N-((6S,7S)-5-((R)-2-fluoropropanoyl)-6-((2,3′,5′-trifluoro-[1,1′-biphenyl]-3-yl)methyl)-5-azaspiro[2.4]heptan-7-yl)methanesulfonamide] | –
